Data from patent US6350764B2, “Heteroaryl aminoguanidines and alkoxyguanidines and their use as protease inhibitors” (3-Dimensional Pharmaceuticals, Inc., priority 1997, dated 2002).
Counter-ions that a name gives are not always drawn. Blank lines part the entries; values can stand above or below the compound they belong to.

Tests used:
Format in all cases: biochemical
human α-thrombin = target: T1, human α-thrombin (Homo sapiens, UniProt P00734); test: In vitro inhibition of purified enzymes: thrombin, hydrolysis of N-succinyl-Ala-Ala-Pro-Arg-p-nitroanilide; conditions: 37° C., pH 7.5
T1 construct: Purified human a-thrombin was diluted into assay buffer; purchased Enzyme Research Laboratories (South Bend)
Source text: (§1) Reagents: All buffer salts were obtained from Sigma Chemical Company (St. Louis, Mo.), and were of the highest purity available. The enzyme substrates, N-benzoyl-Phe-Val-Arg-p-nitroaniide (Sigma B7632) N-benzoyl-Ile-Glu-Gly-Arg-p-nitroanilide hydrochloride (Sigma B2291), N-p-Tosyl-Gly-Pro-Lys-p-nitroanilide (Sigma T6140), N-succinyl-Ala-Ala-Pro-Phe-p-nitroanilide (Sigma S7388) and N-CBZ-Val-Gly-Arg-p-nitroanilide (Sigma C7271) were obtained from Sigma.
(§2) Human α-thrombin, human factor Xa and human plasmin were obtained from Enzyme Research Laboratories (South Bend, Id.). Bovine α-chymotrypsin (Sigma C4129), bovine trypsin (Sigma T8642) and human kidney cell urokinase (Sigma U5004) were obtained from Sigma. Human leukocyte elastase was obtained from Elastin Products (Pacific, Mo.).
Ki Determinations: All assays are based on the ability of the test compound to inhibit the enzyme catalyzed hydrolysis of a peptide p-nitroanilide substrate. […] The final concentrations for each of the substrates is listed below. In general, substrate concentrations are lower than the experimentally determined value for Km. Test compounds are prepared as a 1.0 mg/ml solution in DMSO. Dilutions are prepared in DMSO yielding 8 final concentrations encompassing a 200 fold concentration range. Enzyme solutions are prepared at the concentrations listed below in assay buffer.
(§3) Reactions were initiated by the addition of a […] aliquot of enzyme and the absorbance increase at 405 nm is recorded for 15 minutes. Data corresponding to less than 10% of the total substrate hydrolysis were used in the calculations. The ratio of the velocity (rate of change in absorbance as a function of time) for a sample containing no test compound is divided by the velocity of a sample containing test compound, and is plotted as a function of test compound concentration. The data are fit to a linear regression, and the value of the slope of the line calculated. The inverse of the slope is the experimentally determined Ki value.
Thrombin: Thrombin activity was assessed as the ability to hydrolyze the substrate N-succinyl-Ala-Ala-Pro-Arg-p-nitroanilide. […] Final reagent concentrations were: [thrombin]=0.5 nM, [substrate N-succinyl-Ala-Ala-Pro-Arg-p-nitroanilide]=32 mM.

human factor Xa = target: T2, human factor Xa (Homo sapiens, UniProt P00742); test: In vitro inhibition of purified enzymes: Factor X [FXa], hydrolysis of N-benzoyl-Ile-Glu-Gly-Arg-p-nitroanilide; conditions: for Ki: 37° C., pH 7.5
T2 construct: purchased Enzyme Research Laboratories (South Bend)
Source text: as §1, with “Sigma. N-succinyl-Ala-Ala-Pro-Arg-p-nitroanilide (BACHEM L-1720) and N-succinyl-Ala-Ala-Pro-Val-p-nitroanilide (BACHEM L-1770) were obtained from BACHEM (King of Prussia, Pa.).” for “Sigma.”
as §2
(§4) Ki Determinations: All assays are based on the ability of the test compound to inhibit the enzyme catalyzed hydrolysis of a peptide p-nitroanilide substrate. In atypical Ki determination, substrate is prepared in DMSO, and diluted into an assay buffer consisting of 50 mM HEPES, 200 mM NaCl, pH 7.5. The final concentrations for each of the substrates is listed below. In general, substrate concentrations are lower than the experimentally determined value for Km. Test compounds are prepared as a 1.0 mg/ml solution in DMSO. Dilutions are prepared in DMSO yielding 8 final concentrations encompassing a 200 fold concentration range. Enzyme solutions are prepared at the concentrations listed below in assay buffer.
as §3, with “In a typical Ki determination, into each well of a 96 well plate is pipetted […] of substrate solution, […] of test compound solution, and the plate allowed to thermally equilibrate at 37° C. in a Molecular Devices plate reader for>15 minutes. Reactions” for “Reactions”
Factor X [FXa]: FXa activity was assessed as the ability to hydrolyze the substrate N-benzoyl-Ile-Glu-Gly-Arg-p-nitroanilide hydrochloride. […] Final DMSO concentration was 4.3%. Purified activated human Factor X was diluted into assay buffer to a concentration of 300 nM. Final reagent concentrations were: [FXa]=10 nM, [N-benzoyl-Ile-Glu-Gly-Arg-p-nitroanilide hydrochloride]=51 mM.

bovine α-chymotrypsin = target: T3, bovine α-chymotrypsin (Bos taurus, UniProt P00766); test: In vitro inhibition of purified enzymes: chymotrypsin, hydrolysis of N-succinyl-Ala-Ala-Pro-Phe-p-nitroanilide
T3 construct: Bovine α-chymotrypsin (Sigma C4129); purchased Sigma C4129
Source text: as §1, with “Sigma. N-succinyl-Ala-Ala-Pro-Arg-p-nitroanilide (BACHEM L-1720) and N-succinyl-Ala-Ala-Pro-Val-p-nitroanilide (BACHEM L-1770) were obtained from BACHEM (King of Prussia, Pa.).” for “Sigma.”
as §2, §4
as §3, with “In a typical Ki determination, into each well of a 96 well plate is pipetted […] of substrate solution, […] of test compound solution, and the plate allowed to thermally equilibrate at 37° C. in a Molecular Devices plate reader for>15 minutes. Reactions” for “Reactions”
Chymotrypsin: Chymotrypsin activity was assessed as the ability to hydrolyze N-succinyl-Ala-Ala-Pro-Phe-p-nitroanilide. […] Final DMSO concentration was 4.3%. Purified bovine chymotrypsin was diluted into assay buffer to a concentration of 81 nM. Final reagent concentrations were: [Chymotrypsin]=2.7 nM, [N-succinyl-Ala-Ala-Pro-Phe-p-nitroanilide]=14 mM.

human leukocyte elastase = target: T4, human leukocyte elastase (Homo sapiens, UniProt P08246); test: In vitro inhibition of purified enzymes: elastase, hydrolysis of N-succinyl-Ala-Ala-Pro-Val-p-nitroanilide
T4 construct: purchased Elastin Products (Pacific, Mo.)
T4 sequence (P08246 30-247 limits assumed): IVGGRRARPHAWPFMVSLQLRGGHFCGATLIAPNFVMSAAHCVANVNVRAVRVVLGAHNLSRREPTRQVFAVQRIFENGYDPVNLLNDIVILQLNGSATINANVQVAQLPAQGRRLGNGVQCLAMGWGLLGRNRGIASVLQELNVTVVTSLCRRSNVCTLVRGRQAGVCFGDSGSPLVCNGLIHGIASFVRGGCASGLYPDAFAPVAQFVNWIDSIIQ
Source text: as §1, with “Sigma. N-succinyl-Ala-Ala-Pro-Arg-p-nitroanilide (BACHEM L-1720) and N-succinyl-Ala-Ala-Pro-Val-p-nitroanilide (BACHEM L-1770) were obtained from BACHEM (King of Prussia, Pa.).” for “Sigma.”
as §2, §4
as §3, with “In a typical Ki determination, into each well of a 96 well plate is pipetted […] of substrate solution, […] of test compound solution, and the plate allowed to thermally equilibrate at 37° C. in a Molecular Devices plate reader for>15 minutes. Reactions” for “Reactions”
Elastase: Elastase activity was assessed as the ability to hydrolyze N-succinyl-Ala-Ala-Pro-Val-p-nitroanilide. Substrate solutions were prepared at a concentration of 19 mM (19 mM<<Km=89 mM) in assay buffer. Final DMSO concentration was 4.3%. Purified human leukocyte elastase was diluted into assay buffer to a concentration of 750 nM. Final reagent concentrations were: [Elastase]=25 nM, [N-succinyl-Ala-Ala-Pro-Val-p-nitroanilide]=19 mM.

human plasmin = target: T5, human plasmin (Homo sapiens, UniProt P00747); test: In vitro inhibition of purified enzymes: plasmin, hydrolysis of N-p-Tosyl-Gly-Pro-Lys-p-nitroanilide
T5 construct: Purified human plasmin was diluted into assay buffer; purchased Enzyme Research Laboratories (South Bend)
Source text: as §1, with “Sigma. N-succinyl-Ala-Ala-Pro-Arg-p-nitroanilide (BACHEM L-1720) and N-succinyl-Ala-Ala-Pro-Val-p-nitroanilide (BACHEM L-1770) were obtained from BACHEM (King of Prussia, Pa.).” for “Sigma.”
as §2, §4
as §3, with “In a typical Ki determination, into each well of a 96 well plate is pipetted […] of substrate solution, […] of test compound solution, and the plate allowed to thermally equilibrate at 37° C. in a Molecular Devices plate reader for>15 minutes. Reactions” for “Reactions”
Plasmin: Plasmin activity was assessed as the ability to hydrolyze the N-p-Tosyl-Gly-Pro-Lys-p-nitroanilide. Substrate solutions were prepared at a concentration of 37 mM (37 mM<<Km=243 mM) in assay buffer. Final DMSO concentration was 4.3%. Purified human plasmin was diluted into assay buffer to a concentration of 240 nM. Final reagent concentrations were: [Plasmin]=8 nM, [N-p-Tosyl-Gly-Pro-Lys-p-nitroanilide]=37 mM.

bovine trypsin = target: T6, bovine trypsin (Bos taurus, UniProt P00760); test: In vitro inhibition of purified enzymes: trypsin, hydrolysis of N-benzoyl-Phe-Val-Arg-p-nitroanilide; conditions: for Ki: 37° C., pH 7.5
T6 construct: Purified bovine trypsin was diluted into assay buffer; purchased Sigma T8642
T6 sequence (P00760 24-246): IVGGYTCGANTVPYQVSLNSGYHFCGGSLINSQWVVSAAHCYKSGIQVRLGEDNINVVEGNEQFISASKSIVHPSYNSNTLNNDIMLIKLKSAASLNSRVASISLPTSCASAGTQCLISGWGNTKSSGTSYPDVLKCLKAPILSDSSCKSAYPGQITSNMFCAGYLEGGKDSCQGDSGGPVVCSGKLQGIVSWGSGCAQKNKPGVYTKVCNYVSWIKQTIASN
Source text: as §1, with “Sigma. N-succinyl-Ala-Ala-Pro-Arg-p-nitroanilide (BACHEM L-1720) and N-succinyl-Ala-Ala-Pro-Val-p-nitroanilide (BACHEM L-1770) were obtained from BACHEM (King of Prussia, Pa.).” for “Sigma.”
as §2, §4
as §3, with “In a typical Ki determination, into each well of a 96 well plate is pipetted […] of substrate solution, […] of test compound solution, and the plate allowed to thermally equilibrate at 37° C. in a Molecular Devices plate reader for>15 minutes. Reactions” for “Reactions”
Trypsin: Trypsin activity was assessed as the ability to hydrolyze N-benzoyl-Phe-Val-Arg-p-nitroanilide. […] Final DMSO concentration was 4.3%. Purified bovine trypsin was diluted into assay buffer to a concentration of 120 nM. Final reagent concentrations were: [Trypsin]=4 nM, [N-benzoyl-Phe-Val-Arg-p-nitroanilide]=13 mM.

T5 sequence (P00747 581-810 limits assumed): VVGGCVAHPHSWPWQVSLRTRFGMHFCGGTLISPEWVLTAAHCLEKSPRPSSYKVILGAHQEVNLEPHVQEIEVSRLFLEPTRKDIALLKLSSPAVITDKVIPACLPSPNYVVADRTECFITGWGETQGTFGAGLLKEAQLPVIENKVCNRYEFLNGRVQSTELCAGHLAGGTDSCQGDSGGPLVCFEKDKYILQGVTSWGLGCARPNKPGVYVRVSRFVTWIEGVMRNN
T5 sequence (P00747 97-580 partner limits assumed): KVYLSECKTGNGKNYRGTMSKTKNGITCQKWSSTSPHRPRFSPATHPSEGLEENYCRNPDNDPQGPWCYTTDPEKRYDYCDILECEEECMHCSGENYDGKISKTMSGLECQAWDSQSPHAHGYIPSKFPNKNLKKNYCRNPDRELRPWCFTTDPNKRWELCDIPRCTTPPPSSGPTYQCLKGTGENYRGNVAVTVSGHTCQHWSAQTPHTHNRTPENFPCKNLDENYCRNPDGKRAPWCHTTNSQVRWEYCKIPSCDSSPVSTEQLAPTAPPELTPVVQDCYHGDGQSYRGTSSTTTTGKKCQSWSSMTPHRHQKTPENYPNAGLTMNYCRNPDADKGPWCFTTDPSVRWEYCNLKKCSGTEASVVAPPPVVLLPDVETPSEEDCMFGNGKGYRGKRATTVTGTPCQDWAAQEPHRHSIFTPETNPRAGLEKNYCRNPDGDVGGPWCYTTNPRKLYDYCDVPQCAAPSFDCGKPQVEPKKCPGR
T2 sequence (P00742 235-488 limits assumed): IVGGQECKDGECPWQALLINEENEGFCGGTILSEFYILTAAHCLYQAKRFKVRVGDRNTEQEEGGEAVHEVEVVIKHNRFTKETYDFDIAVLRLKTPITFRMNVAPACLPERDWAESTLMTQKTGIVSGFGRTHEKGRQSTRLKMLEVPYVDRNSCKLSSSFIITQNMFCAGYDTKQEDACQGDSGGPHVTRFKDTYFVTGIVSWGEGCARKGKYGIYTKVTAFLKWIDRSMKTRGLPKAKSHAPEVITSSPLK
T2 sequence (P00742 41-179 partner limits assumed): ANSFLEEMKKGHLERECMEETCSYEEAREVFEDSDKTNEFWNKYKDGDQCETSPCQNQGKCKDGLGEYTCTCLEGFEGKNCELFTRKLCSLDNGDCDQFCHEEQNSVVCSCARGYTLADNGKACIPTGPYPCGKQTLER

Ki (human α-thrombin): 61 nM
Ki (human factor Xa): 7600 nM
inhibition at 23.5 µM (bovine α-chymotrypsin; at 23,500 nM, read-out: % Inhibition Chymo.): 0%
inhibition at 23.5 µM (human leukocyte elastase; at 23,500 nM): 0%
inhibition at 23.5 µM (human plasmin; at 23,500 nM): 0%
inhibition at 23.5 µM (bovine trypsin; at 23,500 nM): 0%
SMILES: Cc1ccc(NS(=O)(=O)c2ccccc2Cl)c(=O)n1CC(=O)NCCONC(=N)N [Example 30, 3-(2-Chlorophenylsulfonyl)amino-6-methyl-1-[(2-guanidinooxyethyl)aminocarbonylmethyl]-2-pyridinone trifluoroacetate]

Ki (human α-thrombin): 220 nM
Ki (human factor Xa): 2100 nM
Ki (bovine trypsin): 2300 nM
SMILES: COc1ccc(Br)cc1S(=O)(=O)Nc1ccc(C)n(CC(=O)NCCONC(=N)N)c1=O [Example 55, 3-(3-Bromo-6-methoxyphenylsulfonyl)amino-6-methyl-1-[(2-guanidinooxyethyl)aminocarbonylmethyl]-2-pyridinoine trifluoroacetate]

Ki (human α-thrombin): 290 nM
Ki (human factor Xa): 1300 nM
inhibition at 18 µM (bovine α-chymotrypsin; at 18,000 nM, read-out: % Inhibition Chymo.): 0%
inhibition at 18 µM (human leukocyte elastase; at 18,000 nM): 0%
inhibition at 18 µM (human plasmin; at 18,000 nM): 0%
Ki (bovine trypsin): 1600 nM
SMILES: Cc1ccc(NS(=O)(=O)c2ccc3cc(Cl)ccc3c2)c(=O)n1CC(=O)NCCONC(=N)N [Example 85, 3-(6-Chloronaphthalene-2-sulfonyl)amino-6-methyl-1-[(2-guanidinooxyethyl)aminocarbonylmethyl]-2-pyridinone trifluoroacetate]

Ki (human α-thrombin): 51 nM
Ki (human factor Xa): 420 nM
inhibition at 20 µM (bovine α-chymotrypsin; at 20,000 nM, read-out: % Inhibition Chymo.): 0%
inhibition at 20 µM (human leukocyte elastase; at 20,000 nM): 0%
inhibition at 20 µM (human plasmin; at 20,000 nM): 0%
inhibition at 20 µM (bovine trypsin; at 20,000 nM): 0%
SMILES: Cc1ccc(NS(=O)(=O)c2ccc(I)cc2)c(=O)n1CC(=O)NCCONC(=N)N [Example 38, 3-(4-Iodophenylsulfonyl)amino-6-methyl-1-[(2-guanidinooxyethyl)aminocarbonylmethyl]-2-pyridinone trifluoroacetate]

SMILES: Cc1ccc(NS(=O)(=O)Cc2ccccc2)c(=O)n1CC(=O)NCCCONC(=N)N.O=C(O)C(F)(F)F [Example 1, 3-Benzylsulfonylamino-6-methyl-1-[(3-guanidinooxypropyl)aminocarbonylmethyl]-2-pyridinone trifluorocaetate]
Ki (human α-thrombin): 53 nM
% Inhibition FXa (human factor Xa; at 24,000 nM): 0 @ %
% Inhibition Chymo. (bovine α-chymotrypsin; at 24,000 nM): 0 @ %
% Inhibition Elastase (human leukocyte elastase; at 24,000 nM): 0 @ %
% Inhibition Plasmin (human plasmin; at 24,000 nM): 0 @ %
% Inhibition Trypsin (bovine trypsin; at 24,000 nM): 0 @ %
